From patent publication US8999243B2, “Blood coagulation system analyzing method and blood coagulation system analyzing device” (Sony Corporation, priority 2011, dated 2015)

What was measured:
[1] = system: platelets in sample blood (whole blood); test: Dielectric measurement (complex permittivity) of blood coagulation with platelet activating agent; type: cell-based, human; details: frequency 10.7 MHz
Protocol: By using an evacuated blood collection tube treated with use of sodium citrate as an anticoagulant, blood was collected from the healthy person and the patient with thrombocytopenia (the number of platelets in 1 μL of blood was 1.2×10^4) as a whole blood sample. Next, 0.25 M of a calcium chloride aqueous solution was added (85 μL per 1 mL of blood) to the sample blood whose temperature was kept at 37° C. and a blood coagulation reaction was started. The platelet activating agent (ADP) was so added as to be mixed in the calcium chloride aqueous solution (10 μM per 1 mL of blood). Immediately after the start of the blood coagulation reaction, measurement was performed for 60 minutes by using an impedance analyzer (Agilent Corporation, 4294A) under the following condition: temperature was 37° C.; frequency range was 40 Hz to 110 MHz; and measurement time interval was one minute.

[2] = system: platelets in sample blood / platelet poor blood; test: Rheometer (free damped oscillation type) measurement of viscoelasticity change / coagulation time; type: cell-based, human
Protocol: By using an evacuated blood collection tube treated with use of sodium citrate as an anticoagulant, blood was collected from the healthy person and the patient with thrombocytopenia (the number of platelets in 1 μL of blood was 1.2×10^4) as a whole blood sample. Furthermore, blood cells and platelets were separated from the whole blood sample to prepare platelet poor plasma. The sample blood was centrifuged under a condition of 500 G and five minutes to be separated into blood cells and platelet rich plasma (PRP). The plasma was centrifuged under a condition of 2000 G and 30 minutes and sedimentation of the platelets was caused to obtain the platelet poor plasma (PPP). Measurement was performed by using a rheometer of the free damped oscillation type. The coagulation time was obtained by observing a change in the viscoelasticity and compared with the result by the dielectric measurement.

SMILES: Nc1ncnc2c1ncn2[C@@H]1O[C@H](COP(=O)(O)OP(=O)(O)O)[C@@H](O)[C@H]1O [ADP, adenosine diphosphate]
- coagulation time with ADP addition ([1]; sample blood of patient with thrombocytopenia (1.2×10^4 platelets in 1 μL), ADP added): 38 min
- change of coagulation time due to ADP addition (dielectric measurement) ([1]; sample blood of patient with thrombocytopenia): shortening of the coagulation time was found
- average of the coagulation time when the ADP was added ([1]; sample blood of plural healthy persons, ADP 10 μM per 1 mL of blood in calcium chloride solution, 37° C., without ADP 31 minutes): 17 min
- change of coagulation time due to ADP addition (dielectric measurement) ([1]; sample blood of plural healthy persons): shortening of the coagulation time
- change of coagulation time due to ADP addition (rheometer) ([2]; platelet poor blood (cleaned red blood cells added to platelet poor plasma)): not observed
- change of coagulation time due to ADP addition (rheometer) ([2]; sample blood of the healthy person): shortening of the coagulation time
